In US9481654B2, “Compositions and methods for inhibition of the JAK pathway” (Rigel Pharmaceuticals, Inc., priority 2006, dated 2016):

Experiments:
Assay type in all cases: cell-based
[1] = tested on: IL-4 stimulated CD23 upregulation in human Ramos B cells (JAK-1/JAK-3, Stat-6); experiment: Assay for Ramos B-Cell Line Stimulated with IL-4 (CD23 upregulation, FACS); details: Table III Example 3
Procedure, shortened: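 Log-phase Ramos B cells (5×10^4 per point, RPMI with 5% serum) pre-incubated with compound or DMSO 1 h at 37° C, then stimulated with IL-4 at 50 units/mL final for 20-24 h. CD23 upregulation measured by staining and flow cytometry.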

[2] = tested on: IFNγ induced ICAM-1 (CD54) up-regulation in U937 human monocytic cells (JAK/Stat pathway); experiment: U937 IFNγ ICAM1 FACS Assay; details: Table III Example 6; 10 ng/mL IFNγ, 18-24 hours
Source text: A549 lung epithelial cells and U937 cells up-regulate ICAM-1 (CD54) surface expression in response to a variety of different stimuli. Therefore, using ICAM-1 expression as readout, test compound effects on different signaling pathways can be assessed in the same cell type. Stimulation with IL-1β through the IL-1β receptor activates the TRAF6/NFκB pathway resulting in up-regulation of ICAM-1. IFNγ induces ICAM-1 up-regulation through activation of the JAK1/JAK2 pathway. The up-regulation of ICAM-1 can be quantified by flow cytometry across a compound dose curve and EC50 values are calculated. Exemplary assays of this type are described in greater detail in Examples 5 and 6. U937 human monocytic cells up-regulate ICAM-1 (CD54) surface expression in response to a variety of different stimuli. Therefore, using ICAM-1 expression as readout, compound effects on different signaling pathways can be assessed in the same cell type. IFNγ up-regulates ICAM-1 through activation of the JAK/Stat pathway. In this example, the up-regulation of ICAM-1 by IFNγ was assessed. […] The cells were then plated at a concentration of 100,000 cells per 160 μL in 96 well flat bottom plates. The test compounds were then diluted as follows: 10 mM test compound was diluted 1:5 in DMSO (3 μL 10 mM test compound in 12 μL DMSO), followed by a 1:3 serial dilution of test compound in DMSO (6 μL test compound serially diluted into 12 μL DMSO to give 3-fold dilutions). […] For control wells, 4 μL of DMSO was diluted into 76 μL 10% RPMI. […] The cells and compounds were then pre-incubated for 30 minutes at 37° C. with 5% CO2. […] The cells were kept under conditions for stimulation for 18-24 hours at 37° C. with 5% CO2. […] Cells were spun down at 1000 rpm for 5 minutes at 4° C., following which the supernatant was removed. […] The cells were then incubated on ice in the dark for 30 minutes. […] After suspension, the cells were centrifuged at 1000 rpm for 5 min at 4° C. […] Detection was performed using a BD LSR I System Flow Cytometer, purchased from BD Biosciences of San Jose, Calif. The live cells were gated for live scatter and the geometric mean of ICAM-APC was measured (Becton-Dickinson CellQuest software version 3.3, Franklin Lakes, N.J.). Both % live cells and ICAM-1 expression was analyzed. The assays for the test compounds were carried out in parallel with a control compound of known activity.

[3] = tested on: primary human T-cells (IL-2 induced proliferation, JAK-1/JAK-3, Stat-5); experiment: Primary Human T-Cell Proliferation Assay Stimulated with IL-2 (CellTiter-Glo); details: Table III Example 4
Procedure, shortened: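 Pre-activated peripheral-blood T-cells (TCR/CD28 stimulated, IL-2-maintained) were IL-2-depleted, then plated in Yssel's medium with 80 U/mL IL-2 in the cell suspension and compound in duplicate. Proliferation ran 72 h at 37 °C; viable cells quantified by CellTiter-Glo ATP luminescence, with IL-2-omitted wells as unstimulated control.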

| Structure (SMILES) | IC50 [1] [nM] | IC50 [2] [nM] | IC50 [3] [nM] |
| --- | --- | --- | --- |
| CCS(=O)(=O)NCCc1ccc(Nc2nc(Nc3ccc(S(N)(=O)=O)cc3)ncc2C)cc1 [Compound I-38, N2-(4-aminosulfonyl)phenyl-N4-[4-(2-ethylsulfonylamino)ethyl]phenyl-5-methyl-2,4-pyrimidinediamine] | 122 | 855 | 190 |
| Cc1ccc(Nc2ncc(C)c(Nc3ccc4c(c3)CN(S(=O)(=O)C3CC3)C4)n2)cc1S(N)(=O)=O [II-7, N2-(3-Aminosulfonyl-4-methylphenyl)-N4-[(2-cyclopropylsulfonyl)-isoindolin-5-yl]-5-methyl-2,4-pyrimidinediamine] | 130 | 652 | 155 |
| CCCN(Cc1ccc(Nc2nc(Nc3ccc(C)c(S(N)(=O)=O)c3)ncc2C)cc1)S(=O)(=O)C1CC1 [Compound I-81, N2-(3-aminosulfonyl-4-methyl)phenyl-N4-[4-(N-cyclopropylsulfonyl-N-propylamino)methyl]phenyl-5-methyl-2,4-pyrimidinediamine] | 73.6 | 215 | 89.2 |
| Cc1cnc(Nc2ccc(S(N)(=O)=O)cc2)nc1Nc1ccc2c(c1)CN(S(=O)(=O)C1CC1)C2 [II-9, N2-(4-Aminosulfonyl-phenyl)-N4-[(2-cyclopropylsulfonyl)-isoindolin-5-yl]-5-methyl-2,4-pyrimidinediamine] | 118 | 1110 | 277 |
| Cc1ccc(Nc2ncc(C)c(Nc3cccc(CNS(=O)(=O)C4CC4)c3)n2)cc1S(=O)(=O)NCC1CC1 [Compound I-216, N2-(3-cyclopropylmethylaminosulfonyl-4-methyl)phenyl-N4-(3-cyclopropylsulfonylaminomethyl)phenyl-5-methyl-2,4-pyrimidinediamine] | 161 | 590 | 154 |
| CCCNS(=O)(=O)c1cc(Nc2ncc(C)c(Nc3cccc(CNS(=O)(=O)C4CC4)c3)n2)ccc1C [Compound I-215, N4-(3-cyclopropylsulfonylaminomethyl)phenyl-5-methyl-N2-(4-methyl-3-propylaminosulfonyl)phenyl-2,4-pyrimidinediamine] | 132 | 385 | 116 |
| Cc1cnc(Nc2cccc(S(N)(=O)=O)c2)nc1Nc1ccc2c(c1)CCN(S(=O)(=O)C1CC1)C2 [II-2, N2-(3-aminosulfonyl)phenyl-N4-[(N-cyclopropylsulfonyl)-1,2,3,4-tetrahydroisoquinolin-6-yl]-5-methyl-2,4-pyrimidinediamine] | 7.75 | 107 | 30.4 |
| Cc1ccc(Nc2ncc(C)c(Nc3ccc(CNS(=O)(=O)c4cccnc4)cc3)n2)cc1S(N)(=O)=O [Compound I-101, N2-(3-aminosulfonyl-4-methyl)phenyl-5-methyl-N4-[4-(pyrid-3-yl)sulfonylaminomethyl]phenyl-2,4-pyrimidinediamine] | 62.4 | 433 | 224 |
| Cc1cnc(Nc2cccc(S(N)(=O)=O)c2)nc1Nc1ccc(CNS(=O)(=O)C2CC2)cc1 [Compound I-46, N2-(3-aminosulfonyl)phenyl-N4-(4-cyclopropylsulfonylaminomethyl)phenyl-5-methyl-2,4-pyrimidinediamine] | 26.8 | 188 | 24.9 |
| Cc1cnc(Nc2ccc(S(=O)(=O)NCC3CC3)cc2)nc1Nc1ccc(CNS(=O)(=O)C2CC2)cc1 [Compound I-179, N2-(4-cyclopropylmethylaminosulfonyl)phenyl-N4-(4-cyclopropylsulfonylaminomethyl)phenyl-5-methyl-2,4-pyrimidinediamine] | 45.9 | 365 | 290 |
| Cc1ccc(Nc2ncc(C)c(Nc3cccc(CN(C)S(=O)(=O)C4CC4)c3)n2)cc1S(N)(=O)=O [Compound I-122, N2-(3-aminosulfonyl-4-methyl)phenyl-N4-[3-(N-cyclopropylsulfonyl-N-methyl)aminomethyl]phenyl-5-methyl-2,4-pyrimidinediamine] | 81.6 | 155 | 88.3 |
| Cc1ccc(Nc2ncc(C)c(Nc3cccc(CNS(=O)(=O)C4CC4)c3)n2)cc1S(=O)(=O)NC(C)C [Compound I-209, N4-(3-cyclopropylsulfonylaminomethyl)phenyl-N2-(3-isopropylaminosulfonyl-4-methyl)phenyl-5-methyl-2,4-pyrimidinediamine] | 113 | 529 | 131 |
| CCS(=O)(=O)NCc1ccc(Nc2nc(Nc3cccc(S(N)(=O)=O)c3)ncc2F)cc1Cl [Compound I-75, N2-(3-aminosulfonyl)phenyl-N4-(3-chloro-4-ethylsulfonylaminomethyl)phenyl-5-fluoro-2,4-pyrimidinediamine] | 181 | 1200 | 246 |
| CCNS(=O)(=O)c1cc(Nc2ncc(C)c(Nc3cccc(CNS(=O)(=O)C4CC4)c3)n2)ccc1C [Compound I-213, N4-(3-cyclopropylsulfonylaminomethyl)phenyl-N2-(3-ethylaminosulfonyl-4-methyl)phenyl-5-methyl-2,4-pyrimidinediamine] | 88.2 | 125 | 91.8 |
| CCC(=O)N(Cc1ccc(Nc2nc(Nc3ccc(S(N)(=O)=O)cc3)ncc2C)cc1)S(=O)(=O)C1CC1 [Compound I-167, N2-(4-aminosulfonyl)phenyl-N4-[4-(N-cyclopropylsulfonyl-N-propionyl)aminomethyl]phenyl-5-methyl-2,4-pyrimidinediamine] | 132 | 587 | 116 |
| CCS(=O)(=O)N[C@H](C)c1ccc(Nc2nc(Nc3ccc(C)c(S(N)(=O)=O)c3)ncc2F)cc1 [Compound I-31, N2-(3-aminosulfonyl-4-methyl)phenyl-N4-[4-(1R-ethylsulfonylamino)ethyl]phenyl-5-fluoro-2,4-pyrimidinediamine] | 104 | 1020 | 283 |
| CCOC(=NS(=O)(=O)c1cccc(Nc2ncc(C)c(Nc3cccc(CNS(=O)(=O)C4CC4)c3)n2)c1)OCC [Compound I-128, N4-(3-cyclopropylsulfonylaminomethyl)phenyl-N2-[3-(diethoxy)carbonimidylsulfonyl]phenyl-5-methyl-2,4-pyrimidinediamine] | 157 | 707 | 62.2 |
| CCS(=O)(=O)NCc1ccc(Nc2nc(Nc3ccc(S(N)(=O)=O)cc3)ncc2C)cc1 [Compound I-20, N2-(4-aminosulfonyl)phenyl-N4-(4-ethylsulfonylaminomethyl)phenyl-5-methyl-2,4-pyrimidinediamine] | 73.6 | 621 | 46.1 |
| Cc1cnc(Nc2ccc(S(N)(=O)=O)cc2)nc1Nc1cccc(CNS(=O)(=O)C2CC2)c1 [Compound I-56, N2-(4-aminosulfonyl)phenyl-N4-(3-cyclopropylsulfonylaminomethyl)phenyl-5-methyl-2,4-pyrimidinediamine] | 162 | 726 | 310 |
| Cc1ccc(Nc2ncc(F)c(Nc3ccc(CNS(=O)(=O)c4sc(N)nc4C)cc3)n2)cc1S(N)(=O)=O [Compound I-43, N4-[4-(2-amino-4-methylthiazol-5-yl)sulfonylaminomethyl]phenyl-N2-(3-aminosulfonyl-4-methyl)phenyl-5-fluoro-2,4-pyrimidinediamine] | 537 | 37800 | 1790 |
